Assay results as given in article PMC2376372, “3-Bromophenyl 6-acetoxymethyl-2-oxo-2H-1-benzopyran-3-carboxylate inhibits cancer cell invasion in vitro and tumour growth in vivo” (British Journal of Cancer, 2003).

Molecular target: T1, Plasmin (Homo sapiens, UniProt P00747)
T1 construct: No; X′; α-CT; HLE; LMW-uPA; Plasmin; purchased Biogenic
Assay: Inactivation of plasmin (preincubation method)
Format: biochemical
Settings: pH 7.5, 25°C; preincubation method; NI=no inhibition
Procedure: Bovine α-CT and LMW-uPA (MW=33 000 Da) were purchased from Sigma, HMW-uPA (MW=54 000 Da) from Choay, trypsin (TRY) and THR from Boehringer-Indelheim (Germany), and MMP-2 and MMP-9 from Calbiochem. Human leucocyte elastase and PM were from Elastase Products Co. and Biogenic, respectively. Except for THR, HMW-uPA, MMP-2 and MMP-9, enzyme concentrations were determined by active-site titrations using the appropriate titrant ([Bender et al, 1966]; [Chase and Shaw, 1970]; [Powers and Gupton, 1977]). […]
The kinetic parameters for the inhibition were determined either by the preincubation method for LMW-uPA and PM (small aliquots of the reaction mixture were withdrawn at intervals of time and the remaining activity determined), or by the progress curve method (HLE) when the inhibition was too fast to be measured accurately using the preincubation method. […]
At low inhibitor concentrations, the ratio ki/KI was obtained as kobs/[I]0. […] In the progress curve method, the substrate competes with the inhibitor and the kinetic parameters are determined as previously described ([Doucet et al, 1999]). […]

T1 sequence (P00747 581-810 limits assumed, species assumed): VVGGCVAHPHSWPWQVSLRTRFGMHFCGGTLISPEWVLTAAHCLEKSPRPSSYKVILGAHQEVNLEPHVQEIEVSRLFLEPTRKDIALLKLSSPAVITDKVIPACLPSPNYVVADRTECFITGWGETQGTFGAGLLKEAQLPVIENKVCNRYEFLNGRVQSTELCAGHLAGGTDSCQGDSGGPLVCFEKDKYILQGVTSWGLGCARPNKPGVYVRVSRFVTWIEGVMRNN
T1 sequence (P00747 97-580 partner limits assumed, species assumed): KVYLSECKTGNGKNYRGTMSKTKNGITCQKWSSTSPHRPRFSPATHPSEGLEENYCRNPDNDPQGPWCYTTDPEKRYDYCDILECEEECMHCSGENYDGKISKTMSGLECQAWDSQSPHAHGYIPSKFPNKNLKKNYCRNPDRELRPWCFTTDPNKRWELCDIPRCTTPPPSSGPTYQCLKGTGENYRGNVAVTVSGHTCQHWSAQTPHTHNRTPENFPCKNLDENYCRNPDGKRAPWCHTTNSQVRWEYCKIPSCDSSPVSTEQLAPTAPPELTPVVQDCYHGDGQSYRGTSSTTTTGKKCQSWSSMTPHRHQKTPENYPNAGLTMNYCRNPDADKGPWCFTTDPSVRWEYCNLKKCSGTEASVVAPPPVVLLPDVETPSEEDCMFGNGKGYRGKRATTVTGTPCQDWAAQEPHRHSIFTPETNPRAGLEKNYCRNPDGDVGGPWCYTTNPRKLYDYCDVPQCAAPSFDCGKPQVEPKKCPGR

CC(=O)OCc1ccc2oc(=O)c(C(=O)Oc3cccc(Cl)c3)cc2c1 [compound 4, 3-chlorophenyl 6-acetoxymethyl-2-oxo-2H-1-benzopyran-3-carboxylate]
ki/KI or kobs/[I], Plasmin: not affected
